The values that follow come from US20150087613A1, “Inhibition of Opioid Antinociceptive Tolerance and Withdrawal in Nociceptive Pain Therapy” (Saint Louis University, priority 2013, published 2015).

The target of test [1] is T1, A3AR (Mus musculus, UniProt Q61618).
T1 construct: expressed in transfected cells
T1 sequence (Q61618 1-319): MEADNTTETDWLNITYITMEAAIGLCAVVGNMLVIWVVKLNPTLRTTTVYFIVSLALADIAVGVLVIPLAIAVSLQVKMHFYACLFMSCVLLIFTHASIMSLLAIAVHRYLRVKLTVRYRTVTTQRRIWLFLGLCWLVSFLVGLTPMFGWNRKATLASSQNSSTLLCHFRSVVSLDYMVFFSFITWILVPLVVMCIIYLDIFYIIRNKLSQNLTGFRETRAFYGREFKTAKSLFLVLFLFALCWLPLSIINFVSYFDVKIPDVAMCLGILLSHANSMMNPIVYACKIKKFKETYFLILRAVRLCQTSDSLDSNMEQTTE
Briefly: Radioligand binding, membranes of HEK293 cells stably expressing mA3AR. Conditions: species m; n 3-4; read-out: affinity (KV nM) A3.

The next test addresses T2, hA3AR (Homo sapiens, UniProt P0DMS8).
T2 construct: expressed in transfected cells
T2 sequence (P0DMS8 1-318): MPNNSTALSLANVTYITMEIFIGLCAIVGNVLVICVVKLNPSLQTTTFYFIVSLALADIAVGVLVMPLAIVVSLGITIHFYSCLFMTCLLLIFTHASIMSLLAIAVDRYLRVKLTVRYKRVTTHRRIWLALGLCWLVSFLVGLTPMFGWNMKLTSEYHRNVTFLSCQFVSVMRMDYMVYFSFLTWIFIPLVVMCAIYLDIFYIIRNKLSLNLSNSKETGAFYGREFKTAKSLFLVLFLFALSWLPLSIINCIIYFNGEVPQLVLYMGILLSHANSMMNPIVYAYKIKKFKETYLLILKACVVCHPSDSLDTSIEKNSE
Briefly: cAMP assay, inhibition of forskolin-stimulated cAMP in hA3AR-transfected CHO cells. The test is classed as cell-based. Particulars: for Emax at 10 µM: CHO, read-out: % efficacy, A3. (In general: cAMP levels reflect the balance of adenylyl cyclase and phosphodiesterase activity.)

Test [2] has as its target T3, A2AAR (Mus musculus, UniProt Q60613).
T3 construct: expressed in transfected cells
Briefly: Radioligand binding, membranes of HEK293 cells stably expressing mA2AAR. Conditions: read-out: % inhibition A2A.

In test [3] the target is T4, A1AR (Homo sapiens, UniProt P30542).
T4 construct: expressed in transfected cells
T4 sequence (P30542 1-326): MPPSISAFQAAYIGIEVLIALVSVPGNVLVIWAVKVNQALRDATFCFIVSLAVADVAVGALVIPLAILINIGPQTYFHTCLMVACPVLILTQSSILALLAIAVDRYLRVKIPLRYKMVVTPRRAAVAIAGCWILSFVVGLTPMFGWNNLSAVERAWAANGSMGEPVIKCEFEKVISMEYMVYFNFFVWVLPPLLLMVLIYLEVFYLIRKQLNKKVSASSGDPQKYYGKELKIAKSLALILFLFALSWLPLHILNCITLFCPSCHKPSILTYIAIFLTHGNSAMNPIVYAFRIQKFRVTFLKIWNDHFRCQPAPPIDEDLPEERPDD
Briefly: Radioligand binding, membranes of CHO cells stably expressing hA1AR. Particulars: for inhibition at 10 µM: read-out: % inhibition A1.

A further test addresses T5, mA3AR (Mus musculus, UniProt Q61618).
T5 construct: expressed in transfected cells
T5 sequence (Q61618 1-319): T1 sequence (Q61618 1-319)
As to the kind of experiment: cAMP assay, inhibition of forskolin-stimulated cAMP in mA3AR-transfected HEK cells. It is filed as cell-based. Conditions: HEK293; read-out: % efficacy, A3.

Test [4] concerns the target T6, A1AR (Mus musculus, UniProt Q60612).
T6 construct: expressed in transfected cells
T6 sequence (Q60612 1-326): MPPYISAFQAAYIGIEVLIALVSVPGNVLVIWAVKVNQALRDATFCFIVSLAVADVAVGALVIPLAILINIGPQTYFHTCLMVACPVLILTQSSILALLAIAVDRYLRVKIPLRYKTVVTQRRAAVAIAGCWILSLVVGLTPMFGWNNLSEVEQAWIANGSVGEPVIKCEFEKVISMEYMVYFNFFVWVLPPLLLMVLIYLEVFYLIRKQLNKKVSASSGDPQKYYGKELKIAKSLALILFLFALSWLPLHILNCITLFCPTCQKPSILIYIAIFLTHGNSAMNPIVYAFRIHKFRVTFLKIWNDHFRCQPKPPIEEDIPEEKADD
Briefly: Radioligand binding, membranes of HEK293 cells stably expressing mA1AR. Particulars: for inhibition at 10 µM: read-out: % inhibition A1; for Ki: species m, n 3-4, read-out: affinity (KV nM) A1.

The target in test [5] is T7, A2AAR (Homo sapiens, UniProt P29274).
T7 construct: expressed in transfected cells
T7 sequence (P29274 whole entry): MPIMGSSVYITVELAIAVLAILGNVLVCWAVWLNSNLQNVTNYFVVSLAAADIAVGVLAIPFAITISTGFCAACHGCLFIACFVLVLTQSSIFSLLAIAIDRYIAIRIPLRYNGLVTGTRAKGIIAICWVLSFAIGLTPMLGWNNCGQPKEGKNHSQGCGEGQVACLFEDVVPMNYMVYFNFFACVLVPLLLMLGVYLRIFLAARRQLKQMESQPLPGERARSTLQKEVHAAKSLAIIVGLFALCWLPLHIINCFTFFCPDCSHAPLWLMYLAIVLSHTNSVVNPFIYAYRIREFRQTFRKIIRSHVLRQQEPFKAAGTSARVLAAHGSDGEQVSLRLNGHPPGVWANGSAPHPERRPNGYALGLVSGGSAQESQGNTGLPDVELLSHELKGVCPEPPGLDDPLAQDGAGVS
Briefly: Radioligand binding, membranes of HEK293 cells stably expressing hA2AAR. Conditions: read-out: % inhibition A2A.

Test [6] has as its target T8, A3AR (Homo sapiens, UniProt P0DMS8).
T8 construct: expressed in transfected cells
T8 sequence (P0DMS8 1-318): T2 sequence (P0DMS8 1-318)
As to the kind of experiment: Radioligand binding, membranes of CHO cells stably expressing hA3AR. Particulars: species h; agonist radioligand 42; n 3-4; read-out: affinity (KV nM) A3.

For test [7], the target named is T7, A2AAR. Particulars: species h, tested in ref 26, cited from earlier work; for % inhibition A2A: inhibition of binding at 10 μM; for Ki: agonist radioligand 41, read-out: affinity (KV nM) A2A.
The target in test [8] is T4, A1AR. Particulars: species h; inhibition of binding at 10 μM; tested in ref 26; cited from earlier work.
Test [9] concerns the target T8, A3AR. Conditions: species h; agonist radioligand 42; tested in ref 26; read-out: affinity (KV nM) A3; cited from earlier work.
The test system of test [10] is Male Sprague Dawley rats. As to the kind of experiment: Acute antinociceptive interaction with acute morphine (tail flick). Particulars: morphine 3 mg/kg i.p., at 30 min. The test is classed as in vivo, rat.
Source text: (§1) Test substances or vehicle were given on day 0 through 6 after completion of the behavioral tests.
The test system of test [11] is Male Sprague Dawley rats. As to the kind of experiment: Rat morphine antinociceptive tolerance study (osmotic minipump, tail flick test). It is filed as in vivo.
Source text: Minipumps were filled according to manufacturer's specifications. The use of the osmotic pump ensures a continuous subcutaneously delivery of morphine avoiding intermittent periods of withdrawal. […] The integrity of the pump delivery system was reexamined at the end of each experiment when the spinal cords are harvested.
as §1

SMILES strings stand for the structures. Where two headings read alike, the source gives them in different places.

T3 sequence (Q60613 whole entry): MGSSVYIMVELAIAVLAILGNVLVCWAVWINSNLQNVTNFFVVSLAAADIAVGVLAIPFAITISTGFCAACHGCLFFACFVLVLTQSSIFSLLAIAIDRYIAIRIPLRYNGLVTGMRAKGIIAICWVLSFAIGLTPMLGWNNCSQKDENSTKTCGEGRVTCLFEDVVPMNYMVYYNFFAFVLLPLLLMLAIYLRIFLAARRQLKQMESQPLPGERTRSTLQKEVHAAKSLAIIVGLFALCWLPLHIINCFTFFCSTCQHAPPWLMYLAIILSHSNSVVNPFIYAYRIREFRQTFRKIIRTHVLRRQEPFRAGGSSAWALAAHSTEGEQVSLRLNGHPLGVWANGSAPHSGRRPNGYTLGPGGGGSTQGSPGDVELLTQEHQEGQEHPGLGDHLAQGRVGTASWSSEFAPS

For `CNC(=O)[C@@]12C[C@@H]1[C@@H](n1cnc3c(NCCc4ccccc4)nc(C#Cc4ccccc4)nc31)[C@H](O)[C@@H]2O` [Compound 17], the Ki is 8.75 ± 2.12 nM at A3AR [1] and 1.23 ± 0.57 nM on A3AR [6]. Also, the Emax at 10 µM on hA3AR was 105 ± 9.8%. In addition, the inhibition (in general, the change of the read-out against control, counted positive when it falls) at 10 µM stood at 1% on A2AAR [2], 11% at A1AR [3], 25% at A1AR [4] and 32% at A2AAR [5]. Also, at mA3AR, the Emax was found to be 115 ± 14.6%.

`CCNc1nc(C#Cc2ccccc2)nc2c1ncn2[C@H]1[C@H](O)[C@H](O)[C@@H]2C[C@@H]21` [Compound 9]: the Ki on A3AR [1] was found to be 1480 ± 170 nM. In addition, the Emax at 10 µM on hA3AR was determined as 0.8 ± 5.2%. Also, the inhibition at 10 µM on A2AAR [2] and on A1AR [4] was 49% throughout. Further, the “% inhibition A2A” value on A2AAR [7] is on record as “(42% ± 4%)”. Besides, the “% inhibition A1” value on A1AR [8] is “(36% ± 4%)”.

As to `CNC(=O)[C@@]12C[C@@H]1[C@@H](n1cnc3c(NCc4cccc(Cl)c4)nc(C#Cc4cccc(S(=O)(=O)O)c4)nc31)[C@H](O)[C@@H]2O` [Compound 7], the results for the Ki on A3AR [1] and on A3AR [6] were 11.3 ± 1.9 nM and 1.9 ± 0.03 nM, respectively. Moreover, the Emax at 10 µM at hA3AR was 98.2 ± 6.7%. In addition, the inhibition at 10 µM at A2AAR [2] was found to be 1%; at A1AR [3], 16%; on A1AR [4], 15%; at A2AAR [5], 7%. The Emax on mA3AR stood at 89.3 ± 7.1%.

With `O[C@@H]1[C@H](O)[C@@H]2C[C@@H]2[C@H]1n1cnc2c(NCc3cccc(Cl)c3)nc(C#Cc3ccc(-c4ccccc4)cc3)nc21` [Compound 13], the Ki at A3AR [1] was 255 ± 77 nM; at A1AR [4], 1110 ± 220 nM. At hA3AR, the Emax at 10 µM was 3.5 ± 3.2%. Besides, on A2AAR [2], the inhibition at 10 µM was found to be 0%. For the same molecule, the “% inhibition A2A” value on A2AAR [7] was “(12% ± 7%)”. Further, the “% inhibition A1” value on A1AR [8] is recorded as “(48% ± 4%)”.

In the case of `CCNc1nc(C#Cc2ccccc2Cl)nc2c1ncn2C1C(O)C(O)C2CC21` (centres unmarked) [Compound 10], on hA3AR, the Emax at 10 µM is 7 ± 5.2%. The Ki on A3AR [9] was 5.8 ± 2.08 nM. The “% inhibition A2A” value at A2AAR [7] is given as “(17% ± 6%)”. Moreover, on A1AR [8], the “% inhibition A1” value is “(25% ± 11%)”.

With `CNC(=O)[C@@]12C[C@@H]1[C@@H](n1cnc3c(NCc4cccc(Cl)c4)nc(C#Cc4ccccc4)nc31)[C@H](O)[C@@H]2O` [Compound 5], the Ki on A3AR [1] was determined as 1.23 ± 0.14 nM. In addition, the “% efficacy, A3” value at hA3AR (species h, percentage of maximal effect of 5′-N-ethylcarboxamidoadenosine 43, each at 10 μM, mean ± SEM) was determined as 101 ± 5.9%. For the same molecule, the figures for the inhibition at 10 µM on A2AAR [2] and at A1AR [4] were 2% and 50%, respectively. The “% inhibition A1” value at A1AR [8] is recorded as “(20% ± 3%)”.

On to `O=S(=O)(O)c1ccc(CCNc2nc(C#Cc3ccccc3)nc3c2ncn3[C@H]2[C@H](O)[C@H](O)[C@@H]3C[C@@H]32)cc1` [Compound 16], for which the Ki at A3AR [1] was determined as 3920 ± 1190 nM; on A3AR [6], 30.2 ± 4.3 nM. In addition, on hA3AR, the Emax at 10 µM is 7.2%. The inhibition at 10 µM stood at 1% on A2AAR [2], 10% at A1AR [3], 18% on A1AR [4] and 15% on A2AAR [5].

As to `OC1C(O)C(n2cnc3c(NCC(c4ccccc4)c4ccccc4)nc(C#Cc4ccccc4Cl)nc32)C2CC12` (centres unmarked) [Compound 15], on hA3AR, the Emax at 10 µM was found to be 2.6 ± 1.3%. In addition, on A3AR [9], the Ki was 140 ± 30 nM. On A2AAR [7], the “% inhibition A2A” value is reported as “(22% ± 2%)”. On A1AR [8], the “% inhibition A1” value is “(26% ± 4%)”.

For the molecule `OC1C(O)C(n2cnc3c(NCc4cccc(Cl)c4)nc(C#Cc4ccccc4)nc32)C2CC12` (centres unmarked) [Compound 11], the Emax at 10 µM on hA3AR was found to be 13.8 ± 5.1%. In addition, the Ki on A2AAR [7] is 680 ± 170 nM.

For `OC1C(O)C(n2cnc3c(NCc4cccc(Cl)c4)nc(C#Cc4cccc(Cl)c4)nc32)C2CC12` (centres unmarked) [Compound 12], the Ki on A2AAR [7] is 1800 ± 310 nM.

`CN1CC[C@]23c4c5ccc(O)c4O[C@H]2[C@@H](O)C=C[C@H]3[C@H]1C5` [morphine]: the “antinociception after acute morphine alone” value in the test with Male Sprague Dawley rats [10] stood at 40±2 % antinociception. In addition, in the test with Male Sprague Dawley rats [11] (morphine 75 μg/μl/h s.c. by osmotic minipump), the “analgesia at 2 hr following minipump implant” value is given as “approximately 100 % analgesia”. For the same molecule, in the test with Male Sprague Dawley rats [11] (s.c. infusion over 7 days (Veh-Mor, n=2) vs saline infusion, P<0.001, day 3 and 6), the “development of antinociceptive tolerance on chronic morphine infusion” value is “led to the development of antinociceptive tolerance”.

For the molecule `O[C@@H]1[C@H](O)[C@@H]2C[C@@H]2[C@H]1n1cnc2c(NCCc3ccccc3)nc(C#Cc3ccccc3)nc21` [Compound 14], the Emax at 10 µM on hA3AR was determined as 4.1 ± 1.2%. For the same molecule, on A2AAR [7], the “% inhibition A2A” value is reported as “(22% ± 5%)”. Also, the “% inhibition A1” value at A1AR [8] is “(30% ± 8%)”.

Regarding `CNc1nc(C#Cc2ccccc2)nc2c1ncn2[C@H]1[C@H](O)[C@H](O)[C@@H]2C[C@@H]21` [Compound 8], the Ki on A3AR [1] is 1530 ± 240 nM; at A1AR [4] it was 3800 ± 780 nM. Moreover, on hA3AR, the Emax at 10 µM was 12.6 ± 4%. At A2AAR [2], the inhibition at 10 µM stood at 8%. For the same molecule, at A2AAR [7], the “% inhibition A2A” value is given as “(18% ± 3%)”. Also, the “% inhibition A1” value at A1AR [8] is listed as “(18% ± 1%)”.

For the molecule `CNC(=O)[C@@]12C[C@@H]1[C@@H](n1cnc3c(NCc4cccc(Cl)c4)nc(C#Cc4ccc(S(=O)(=O)O)cc4)nc31)[C@H](O)[C@@H]2O` [Compound 6], the Ki on A3AR [1] is 9.68 ± 0.15 nM; at A1AR [3] (species h, agonist radioligand 40, n 3-4, read-out: affinity (KV nM) A1), 383 ± 75 nM; at A1AR [4], 35.1 ± 5.5 nM; at A3AR [6], 11.1 ± 1.6 nM. On hA3AR, the Emax at 10 µM was 96.8 ± 5.7%. The inhibition at 10 µM worked out at 14% on A2AAR [2] and 23% at A2AAR [5]. Moreover, the Emax at mA3AR is 95.7 ± 19.1%.
